Measured values as given in article PMC7366380, “Discovery of a Potent and Selective Covalent Inhibitor and Activity-Based Probe for the Deubiquitylating Enzyme UCHL1, with Antifibrotic Activity” (Journal of the American Chemical Society, 2020).
“And” between values parts separate entries of the source, which are not always exact repeats. Equal values may be shown once.

Experiments:
Experiment in all cases: In-cell proteome-wide competitive ABPP, HEK293: other DUBs and proteins
[1] = molecular target: DUBs and other proteins in HEK293 cells (Homo sapiens, UniProt O00303); settings: for Log2 reporter intensity values, EIF3F: TMT replicates; for Log2 reporter intensity values: EIF3F: competition with ABP 2, DMSO substract (FC); for Log2 reporter intensity values: EIF3F / Log2 reporter intensity values: replicates A-C; for Log2 t-test Difference / Log2 reporter intensity values: EIF3F
Chain of DUBs and other proteins in HEK293 cells (Homo sapiens, UniProt O00303) (O00303 whole entry): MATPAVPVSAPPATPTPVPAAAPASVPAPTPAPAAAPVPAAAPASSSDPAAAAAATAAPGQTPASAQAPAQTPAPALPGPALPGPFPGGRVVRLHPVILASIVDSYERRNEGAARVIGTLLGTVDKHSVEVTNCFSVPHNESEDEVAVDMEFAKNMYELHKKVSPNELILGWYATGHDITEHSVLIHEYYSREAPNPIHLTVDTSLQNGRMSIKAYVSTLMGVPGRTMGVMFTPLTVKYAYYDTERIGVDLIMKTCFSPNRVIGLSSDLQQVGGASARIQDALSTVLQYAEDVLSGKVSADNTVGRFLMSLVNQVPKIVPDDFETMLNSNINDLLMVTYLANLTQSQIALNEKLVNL

[2] = molecular target: DUBs and other proteins in HEK293 cells (Homo sapiens, UniProt Q14694); settings: replicates A-C; for Log2 reporter intensity values: USP10: competition with ABP 2, DMSO substract (FC); for Log2 reporter intensity values: USP10, DMSO subtracted
Chain of DUBs and other proteins in HEK293 cells (Homo sapiens, UniProt Q14694) (Q14694 whole entry): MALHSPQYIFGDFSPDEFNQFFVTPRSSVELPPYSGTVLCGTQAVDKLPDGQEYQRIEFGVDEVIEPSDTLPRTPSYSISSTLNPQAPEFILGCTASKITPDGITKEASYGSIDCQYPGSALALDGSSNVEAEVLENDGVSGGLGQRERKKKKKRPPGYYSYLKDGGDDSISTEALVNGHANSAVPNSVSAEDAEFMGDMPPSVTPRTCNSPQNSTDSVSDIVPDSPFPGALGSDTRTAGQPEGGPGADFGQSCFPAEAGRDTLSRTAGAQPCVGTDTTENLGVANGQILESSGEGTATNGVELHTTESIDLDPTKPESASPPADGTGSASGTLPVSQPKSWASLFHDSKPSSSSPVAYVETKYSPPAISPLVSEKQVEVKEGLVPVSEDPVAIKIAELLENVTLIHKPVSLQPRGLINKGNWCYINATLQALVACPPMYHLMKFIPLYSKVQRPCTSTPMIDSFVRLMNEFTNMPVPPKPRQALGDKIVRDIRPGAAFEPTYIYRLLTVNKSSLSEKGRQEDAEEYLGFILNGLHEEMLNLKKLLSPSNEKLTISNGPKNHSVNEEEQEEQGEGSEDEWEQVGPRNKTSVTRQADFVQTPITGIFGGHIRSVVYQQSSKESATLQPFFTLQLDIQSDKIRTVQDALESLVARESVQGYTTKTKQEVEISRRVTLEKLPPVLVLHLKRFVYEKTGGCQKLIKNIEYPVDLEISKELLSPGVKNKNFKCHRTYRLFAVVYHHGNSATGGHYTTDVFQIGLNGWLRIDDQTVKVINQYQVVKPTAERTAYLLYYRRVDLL

[3] = molecular target: DUBs and other proteins in HEK293 cells (Homo sapiens, UniProt Q7L5N1); settings: for Log2 reporter intensity values, COPS6: TMT replicates; for Log2 reporter intensity values: COPS6: competition with ABP 2, DMSO substract (FC); for Log2 reporter intensity values: COPS6 / Log2 reporter intensity values: replicates A-C; for Log2 t-test Difference / Log2 reporter intensity values: COPS6
Chain of DUBs and other proteins in HEK293 cells (Homo sapiens, UniProt Q7L5N1) (Q7L5N1 whole entry): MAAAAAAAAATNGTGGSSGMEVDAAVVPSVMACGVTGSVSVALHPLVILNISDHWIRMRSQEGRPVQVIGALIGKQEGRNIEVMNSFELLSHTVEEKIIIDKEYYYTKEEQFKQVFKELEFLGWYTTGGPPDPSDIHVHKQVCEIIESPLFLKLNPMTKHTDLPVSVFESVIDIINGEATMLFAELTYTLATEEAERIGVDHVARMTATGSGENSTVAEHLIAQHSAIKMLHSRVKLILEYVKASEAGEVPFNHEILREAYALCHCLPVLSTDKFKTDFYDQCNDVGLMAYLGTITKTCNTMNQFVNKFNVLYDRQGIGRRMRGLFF

[4] = molecular target: DUBs and other proteins in HEK293 cells (Homo sapiens, UniProt Q96FW1); settings: replicates A-C; for Log2 reporter intensity values: OTUB1: competition with ABP 2, DMSO substract (FC); for Log2 reporter intensity values: OTUB1, DMSO subtracted
Chain of DUBs and other proteins in HEK293 cells (Homo sapiens, UniProt Q96FW1) (Q96FW1 whole entry): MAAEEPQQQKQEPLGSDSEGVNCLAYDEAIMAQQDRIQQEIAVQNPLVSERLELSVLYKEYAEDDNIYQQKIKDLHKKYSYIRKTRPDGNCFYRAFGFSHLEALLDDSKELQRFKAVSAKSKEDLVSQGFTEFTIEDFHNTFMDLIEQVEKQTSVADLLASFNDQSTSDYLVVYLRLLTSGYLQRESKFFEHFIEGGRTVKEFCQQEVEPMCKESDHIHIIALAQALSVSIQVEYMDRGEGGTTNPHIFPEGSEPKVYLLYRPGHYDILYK

[5] = molecular target: T1, DUBs and other proteins in HEK293 cells (Homo sapiens, UniProt Q96RU2); settings: replicates A-C; for Log2 reporter intensity values: USP28: competition with ABP 2, DMSO substract (FC); for Log2 reporter intensity values: USP28, DMSO subtracted
T1 sequence (Q96RU2 1-1077): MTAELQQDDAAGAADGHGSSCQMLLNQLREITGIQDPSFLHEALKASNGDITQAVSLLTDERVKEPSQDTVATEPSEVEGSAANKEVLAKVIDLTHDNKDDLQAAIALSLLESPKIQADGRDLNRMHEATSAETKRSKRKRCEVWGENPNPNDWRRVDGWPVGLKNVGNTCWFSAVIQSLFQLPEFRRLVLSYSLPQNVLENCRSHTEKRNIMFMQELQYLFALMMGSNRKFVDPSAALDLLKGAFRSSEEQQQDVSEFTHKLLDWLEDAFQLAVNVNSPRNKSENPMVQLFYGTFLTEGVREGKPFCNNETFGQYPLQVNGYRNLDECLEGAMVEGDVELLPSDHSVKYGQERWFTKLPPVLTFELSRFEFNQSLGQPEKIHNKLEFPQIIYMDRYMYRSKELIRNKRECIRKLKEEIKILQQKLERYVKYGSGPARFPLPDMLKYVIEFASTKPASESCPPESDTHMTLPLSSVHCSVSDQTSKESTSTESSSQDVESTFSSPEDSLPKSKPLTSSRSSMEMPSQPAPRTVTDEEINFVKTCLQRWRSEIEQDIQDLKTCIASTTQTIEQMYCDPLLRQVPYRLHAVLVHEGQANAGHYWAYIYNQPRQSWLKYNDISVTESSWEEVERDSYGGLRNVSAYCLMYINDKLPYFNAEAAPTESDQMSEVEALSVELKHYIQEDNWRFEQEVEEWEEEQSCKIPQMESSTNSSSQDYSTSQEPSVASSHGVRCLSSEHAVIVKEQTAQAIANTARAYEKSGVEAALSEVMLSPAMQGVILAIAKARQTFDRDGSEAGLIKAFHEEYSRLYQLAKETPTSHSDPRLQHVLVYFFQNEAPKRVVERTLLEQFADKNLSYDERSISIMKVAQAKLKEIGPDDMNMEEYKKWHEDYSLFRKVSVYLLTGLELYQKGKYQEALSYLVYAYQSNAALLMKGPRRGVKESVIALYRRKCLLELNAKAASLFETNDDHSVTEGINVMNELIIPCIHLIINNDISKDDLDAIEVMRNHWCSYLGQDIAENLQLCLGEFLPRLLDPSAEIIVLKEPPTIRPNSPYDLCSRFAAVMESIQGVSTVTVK

[6] = 1 μM 3 (60 min) + 20 nM ABP 2 (10 min), All values
[7] = 1 μM 3 (60 min) + 20 nM ABP 2 (10 min), DMSO subtracted
[8] = 4 μM 3 (60 min) + 20 nM ABP 2 (10 min), All values
[9] = 4 μM 3 (60 min) + 20 nM ABP 2 (10 min), DMSO subtracted

Compound: N#CN1CCC[C@@H]1C(=O)N1CCc2c(-c3c[nH]c4ncccc34)cccc21 [Compound 3]
- Log2 reporter intensity values, EIF3F [1, 6]: 0.01809 and -0.02026 and 0.07981
- Log2 reporter intensity values, EIF3F [1, 7]: 0.02764 and -0.01071 and 0.08936
- Log2 reporter intensity values, EIF3F [1, 8]: -0.1978 and 0.02104 and -0.01378
- Log2 reporter intensity values, EIF3F [1, 9]: -0.1882 and 0.03059 and -0.004226
- Log2 reporter intensity values: EIF3F ([1]; 3 at 1 μM): 1.019 and 0.9926 and 1.064
- Log2 reporter intensity values: EIF3F ([1]; 3 at 4 μM): 0.8777 and 1.021 and 0.9971
- Log2 t-test Difference ([1]; 3 - 1 μM): -0.05527
- Log2 t-test Difference ([1]; 3 - 4 μM): -0.1447
- Log2 reporter intensity values ([1]; 3_1 μM, DMSO subtracted): 0.01893 and -0.007817 and 0.06348
- Log2 reporter intensity values ([1]; 3_4 μM, DMSO subtracted): -0.1227 and 0.02101 and -0.003343
- Log2 reporter intensity values ([1]; 3 at 1 μM, DMSO subtracted): 0.02764 and -0.01071 and 0.08936
- Log2 reporter intensity values ([1]; 3 at 4 μM, DMSO subtracted): -0.1882 and 0.03059 and -0.004226
- Log2 reporter intensity values: USP10 ([2]; 3 at 1 μM): 0.9243 and 0.9306 and 0.9846
- Log2 reporter intensity values: USP10 ([2]; 3 at 4 μM): 0.9265 and 0.935 and 0.9597
- Log2 reporter intensity values ([2]; 3_1 μM): -0.07662 and -0.07034 and -0.01633
- Log2 reporter intensity values ([2]; 3_4 μM): -0.07444 and -0.066 and -0.04125
- Log2 reporter intensity values ([2]; 3 at 1 μM): -0.1135 and -0.1037 and -0.02233
- Log2 reporter intensity values ([2]; 3 at 4 μM): -0.1101 and -0.09701 and -0.05932
- Log2 reporter intensity values, COPS6 [3, 6]: 0.04099 and 0.07831 and 0.06581
- Log2 reporter intensity values, COPS6 [3, 7]: 0.02857 and 0.06589 and 0.0534
- Log2 reporter intensity values, COPS6 [3, 8]: -0.1551 and -0.06324 and -0.1331
- Log2 reporter intensity values, COPS6 [3, 9]: -0.1675 and -0.07565 and -0.1455
- Log2 reporter intensity values: COPS6 ([3]; 3 at 1 μM): 1.02 and 1.047 and 1.038
- Log2 reporter intensity values: COPS6 ([3]; 3 at 4 μM): 0.8904 and 0.9489 and 0.9041
- Log2 t-test Difference ([3]; 3 - 1 μM): 0.00565
- Log2 t-test Difference ([3]; 3 - 4 μM): -0.1732
- Log2 reporter intensity values ([3]; 3_1 μM, DMSO subtracted): 0.01989 and 0.04662 and 0.0376
- Log2 reporter intensity values ([3]; 3_4 μM, DMSO subtracted): -0.1098 and -0.0512 and -0.09603
- Log2 reporter intensity values ([3]; 3 at 1 μM, DMSO subtracted): 0.02857 and 0.06589 and 0.0534
- Log2 reporter intensity values ([3]; 3 at 4 μM, DMSO subtracted): -0.1675 and -0.07565 and -0.1455
- Log2 reporter intensity values: OTUB1 ([4]; 3 at 1 μM): 0.9728 and 1.005 and 0.986
- Log2 reporter intensity values: OTUB1 ([4]; 3 at 4 μM): 1.016 and 1.059 and 1.053
- Log2 reporter intensity values ([4]; 3_1 μM): -0.02736 and 0.004799 and -0.01417
- Log2 reporter intensity values ([4]; 3_4 μM): 0.01602 and 0.05888 and 0.05243
- Log2 reporter intensity values ([4]; 3 at 1 μM): -0.03984 and 0.007079 and -0.02041
- Log2 reporter intensity values ([4]; 3 at 4 μM): 0.0231 and 0.08271 and 0.07389
- Log2 reporter intensity values: USP28 ([5]; 3 at 1 μM): 1.351 and 1.11 and 0.8433
- Log2 reporter intensity values: USP28 ([5]; 3 at 4 μM): 0.6356 and 0.4265 and 0.9775
- Log2 reporter intensity values ([5]; 3_1 μM): 0.3111 and 0.07023 and -0.1965
- Log2 reporter intensity values ([5]; 3_4 μM): -0.4041 and -0.6132 and -0.06225
- Log2 reporter intensity values ([5]; 3 at 1 μM): 0.4339 and 0.1505 and -0.246
- Log2 reporter intensity values ([5]; 3 at 4 μM): -0.6539 and -1.229 and -0.03288
